Results: PubChem BioAssay (NCI)
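Method: 48-hour compound exposure of cells in 96-well plates, five concentrations, linear interpolation of endpoints. GI50 is the concentration that inhibits growth by half. TGI denotes the concentration required for complete inhibition of growth.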

How the values were obtained:
Test in all cases: NCI anticancer screen, dose series, 48 h
OVCAR-5 ovarian = system: OVCAR-5 ovarian
NCI-H23 lung = system: NCI-H23 lung
T-47D breast = system: T-47D breast
MOLT-4 leukemia = system: MOLT-4 leukemia
NCI-H226 lung = system: NCI-H226 lung
UO-31 renal = system: UO-31 renal
A498 renal = system: A498 renal
CAKI-1 renal = system: CAKI-1 renal
MALME-3M melanoma = system: MALME-3M melanoma
KM12 colon = system: KM12 colon

CC1OC(n2cc(F)c(=O)[nH]c2=O)CCC1O (stereo not given)
TGI (OVCAR-5 ovarian): > 100 µM
TGI (NCI-H23 lung): > 100 µM
TGI (T-47D breast): > 100 µM
TGI (MOLT-4 leukemia): > 100 µM
TGI (NCI-H226 lung): > 100 µM
TGI (UO-31 renal): > 100 µM
TGI (A498 renal): > 100 µM
TGI (CAKI-1 renal): > 100 µM
TGI (MALME-3M melanoma): > 100 µM
TGI (KM12 colon): > 100 µM

C[C@]12CC[C@H](O)CC1=CC[C@@H]1[C@@H]2CC[C@]2(C)C(c3cccnc3)=CC[C@@H]12
GI50 (OVCAR-5 ovarian): > 100 µM
TGI (OVCAR-5 ovarian): > 100 µM
GI50 (NCI-H23 lung): 12.2 µM
TGI (NCI-H23 lung): > 100 µM
GI50 (T-47D breast): > 100 µM
TGI (T-47D breast): > 100 µM
GI50 (MOLT-4 leukemia): > 38.5 µM
TGI (MOLT-4 leukemia): > 100 µM
GI50 (NCI-H226 lung): > 68 µM
TGI (NCI-H226 lung): > 100 µM
GI50 (UO-31 renal): > 100 µM
TGI (UO-31 renal): > 100 µM
GI50 (A498 renal): > 27.8 µM
TGI (A498 renal): > 100 µM
GI50 (CAKI-1 renal): > 100 µM
TGI (CAKI-1 renal): > 100 µM
GI50 (MALME-3M melanoma): 54.3 µM
TGI (MALME-3M melanoma): > 100 µM
GI50 (KM12 colon): 76.3 µM
TGI (KM12 colon): > 100 µM

Cc1nn(CN2CCN(C)CC2)c(=S)n1/N=C/c1cccc2ccccc12
GI50 (OVCAR-5 ovarian): 19.6 µM
TGI (OVCAR-5 ovarian): 40.4 µM
GI50 (NCI-H23 lung): 21.7 µM
TGI (NCI-H23 lung): 56.2 µM
GI50 (T-47D breast): 17.6 µM
TGI (T-47D breast): 48.2 µM
GI50 (MOLT-4 leukemia): 19.1 µM
TGI (MOLT-4 leukemia): 41.5 µM
GI50 (NCI-H226 lung): 17.1 µM
TGI (NCI-H226 lung): 34.9 µM
GI50 (UO-31 renal): 22 µM
TGI (UO-31 renal): 54.4 µM
GI50 (A498 renal): 16.7 µM
TGI (A498 renal): 34.7 µM
GI50 (CAKI-1 renal): 28.2 µM
TGI (CAKI-1 renal): 73.5 µM
GI50 (KM12 colon): 19.3 µM
TGI (KM12 colon): 41.4 µM

Cc1ccc2c(c1)C(=O)/C(=C/c1ncc([N+](=O)[O-])n1C)O2
GI50 (OVCAR-5 ovarian): 2.7 µM
TGI (OVCAR-5 ovarian): > 27 µM
GI50 (NCI-H23 lung): 2.28 µM
TGI (NCI-H23 lung): 6.56 µM
GI50 (T-47D breast): 20.4 µM
TGI (T-47D breast): 76.5 µM
GI50 (MOLT-4 leukemia): 0.5 µM
TGI (MOLT-4 leukemia): 7.43 µM
GI50 (NCI-H226 lung): 4.62 µM
TGI (NCI-H226 lung): 17.4 µM
GI50 (UO-31 renal): 1.17 µM
TGI (UO-31 renal): 5.04 µM
GI50 (A498 renal): 1.99 µM
TGI (A498 renal): 6.63 µM
GI50 (CAKI-1 renal): 0.665 µM
TGI (CAKI-1 renal): 7.54 µM
GI50 (MALME-3M melanoma): 1.8 µM
TGI (MALME-3M melanoma): 4.37 µM
GI50 (KM12 colon): 1.67 µM
TGI (KM12 colon): 5.21 µM

CCCCC/C(C=C(C#N)C#N)=C/c1ccccc1
GI50 (OVCAR-5 ovarian): 4.11 µM
TGI (OVCAR-5 ovarian): 10.7 µM
GI50 (NCI-H23 lung): 3.62 µM
TGI (NCI-H23 lung): 13.6 µM
GI50 (T-47D breast): 4.93 µM
TGI (T-47D breast): 26.1 µM
GI50 (MOLT-4 leukemia): 2.37 µM
TGI (MOLT-4 leukemia): 6.98 µM
GI50 (NCI-H226 lung): 8.11 µM
TGI (NCI-H226 lung): 25.5 µM
GI50 (UO-31 renal): 7.08 µM
TGI (UO-31 renal): 22.1 µM
GI50 (A498 renal): 9.72 µM
TGI (A498 renal): 23.2 µM
GI50 (CAKI-1 renal): 1.3 µM
TGI (CAKI-1 renal): 21.3 µM
GI50 (MALME-3M melanoma): 3.11 µM
TGI (MALME-3M melanoma): 16.5 µM
GI50 (KM12 colon): 3.37 µM
TGI (KM12 colon): 13.2 µM

O=C1NNC=Nc2ccc(cc2)S(=O)(=O)c2ccc(cc2)N=CNNC1=O
TGI (OVCAR-5 ovarian): > 100 µM
TGI (NCI-H23 lung): > 100 µM
TGI (T-47D breast): > 100 µM
TGI (MOLT-4 leukemia): > 100 µM
TGI (NCI-H226 lung): > 100 µM
TGI (UO-31 renal): > 100 µM
TGI (A498 renal): > 100 µM
TGI (CAKI-1 renal): > 100 µM
TGI (KM12 colon): > 100 µM

O=C(Nc1ccc(N2CCNCC2)cc1)c1[nH]ncc1Nc1cc(Oc2ccccc2)ncn1
GI50 (OVCAR-5 ovarian): 1.78 µM
TGI (OVCAR-5 ovarian): 4.24 µM
GI50 (NCI-H23 lung): 2.12 µM
TGI (NCI-H23 lung): 7.85 µM
GI50 (T-47D breast): 2.46 µM
TGI (T-47D breast): 8.09 µM
GI50 (MOLT-4 leukemia): 2.05 µM
TGI (MOLT-4 leukemia): 5.28 µM
GI50 (NCI-H226 lung): 1.91 µM
TGI (NCI-H226 lung): 10.5 µM
GI50 (UO-31 renal): 1.7 µM
TGI (UO-31 renal): 3.36 µM
GI50 (A498 renal): 1.96 µM
TGI (A498 renal): 4.82 µM
GI50 (CAKI-1 renal): 1.21 µM
TGI (CAKI-1 renal): 3.39 µM
GI50 (MALME-3M melanoma): 1.98 µM
TGI (MALME-3M melanoma): 4.93 µM
GI50 (KM12 colon): 0.216 µM
TGI (KM12 colon): 0.521 µM

O=C1/C(=C/c2ccc(Br)cc2)C=C(c2ccccc2)N1CCc1ccccc1
GI50 (OVCAR-5 ovarian): 4.28 µM
TGI (OVCAR-5 ovarian): 40.2 µM
GI50 (NCI-H23 lung): 1.69 µM
TGI (NCI-H23 lung): 14.6 µM
GI50 (T-47D breast): 13.3 µM
TGI (T-47D breast): > 100 µM
GI50 (MOLT-4 leukemia): 18.4 µM
TGI (MOLT-4 leukemia): > 100 µM
GI50 (NCI-H226 lung): 1.11 µM
TGI (NCI-H226 lung): 4.57 µM
GI50 (UO-31 renal): 2.82 µM
TGI (UO-31 renal): 19.8 µM
GI50 (A498 renal): 0.652 µM
TGI (A498 renal): 5.44 µM
GI50 (CAKI-1 renal): 1.23 µM
TGI (CAKI-1 renal): 7.6 µM
GI50 (MALME-3M melanoma): 1.5 µM
TGI (MALME-3M melanoma): 6.64 µM
GI50 (KM12 colon): 43.6 µM
TGI (KM12 colon): > 100 µM

COC(=O)c1cc2c3ccccc3[nH]c2c2ncccc12
GI50 (OVCAR-5 ovarian): 32.3 µM
TGI (OVCAR-5 ovarian): > 100 µM
GI50 (NCI-H23 lung): 27.2 µM
TGI (NCI-H23 lung): > 100 µM
GI50 (T-47D breast): 3.12 µM
TGI (T-47D breast): > 100 µM
GI50 (MOLT-4 leukemia): > 100 µM
TGI (MOLT-4 leukemia): > 100 µM
GI50 (NCI-H226 lung): > 100 µM
TGI (NCI-H226 lung): > 100 µM
GI50 (UO-31 renal): 69.4 µM
TGI (UO-31 renal): > 100 µM
GI50 (A498 renal): > 100 µM
TGI (A498 renal): > 100 µM
GI50 (CAKI-1 renal): 8.12 µM
TGI (CAKI-1 renal): > 100 µM
GI50 (MALME-3M melanoma): > 100 µM
TGI (MALME-3M melanoma): > 100 µM
GI50 (KM12 colon): 81.1 µM
TGI (KM12 colon): > 100 µM

CNC(=O)OCc1c(COC(=O)NC)c(-c2ccc(Cl)c(Cl)c2)n2c1SCC2
TGI (OVCAR-5 ovarian): 10.8 µM
TGI (NCI-H23 lung): 40.5 µM
TGI (T-47D breast): 57.2 µM
TGI (MOLT-4 leukemia): 47.3 µM
TGI (NCI-H226 lung): 2.67 µM
TGI (UO-31 renal): 25.5 µM
TGI (A498 renal): 2.07 µM
TGI (CAKI-1 renal): 23.9 µM
TGI (MALME-3M melanoma): 37.8 µM
TGI (KM12 colon): 36.8 µM

O=C(O)CCCCC(CCSCc1ccccc1)SCc1ccccc1 (stereo not given)
GI50 (OVCAR-5 ovarian): > 100 µM
TGI (OVCAR-5 ovarian): > 100 µM
GI50 (NCI-H23 lung): 33.5 µM
TGI (NCI-H23 lung): > 100 µM
GI50 (T-47D breast): 44 µM
TGI (T-47D breast): > 100 µM
GI50 (MOLT-4 leukemia): 47 µM
TGI (MOLT-4 leukemia): > 100 µM
GI50 (NCI-H226 lung): > 71 µM
TGI (NCI-H226 lung): > 100 µM
GI50 (UO-31 renal): 30.9 µM
TGI (UO-31 renal): > 100 µM
GI50 (A498 renal): > 38.9 µM
TGI (A498 renal): > 96.7 µM
GI50 (CAKI-1 renal): > 77.5 µM
TGI (CAKI-1 renal): > 100 µM
GI50 (MALME-3M melanoma): 87.7 µM
TGI (MALME-3M melanoma): > 100 µM
GI50 (KM12 colon): 35.2 µM
TGI (KM12 colon): > 100 µM

O=C(O)Cn1ccc(=O)c2ccc([N+](=O)[O-])cc21
TGI (OVCAR-5 ovarian): > 100 µM
TGI (NCI-H23 lung): > 100 µM
TGI (T-47D breast): > 100 µM
TGI (MOLT-4 leukemia): > 100 µM
TGI (NCI-H226 lung): > 100 µM
TGI (UO-31 renal): > 100 µM
TGI (A498 renal): > 100 µM
TGI (CAKI-1 renal): > 100 µM
TGI (MALME-3M melanoma): > 100 µM
TGI (KM12 colon): > 100 µM

COc1cc(/C=C/c2cc(/C=C/c3ccc(O)c(OC)c3)n(-c3ccccc3)n2)ccc1O
GI50 (OVCAR-5 ovarian): 1.27 µM
TGI (OVCAR-5 ovarian): 4.51 µM
GI50 (NCI-H23 lung): 0.197 µM
TGI (NCI-H23 lung): 2 µM
GI50 (T-47D breast): 0.645 µM
TGI (T-47D breast): 2.6 µM
GI50 (MOLT-4 leukemia): 0.347 µM
TGI (MOLT-4 leukemia): > 100 µM
GI50 (NCI-H226 lung): 0.382 µM
TGI (NCI-H226 lung): 1.83 µM
GI50 (UO-31 renal): 0.287 µM
TGI (UO-31 renal): 1.53 µM
GI50 (A498 renal): 0.575 µM
TGI (A498 renal): 1.82 µM
GI50 (CAKI-1 renal): 0.33 µM
TGI (CAKI-1 renal): 7.26 µM
GI50 (KM12 colon): 0.315 µM
TGI (KM12 colon): 1.29 µM

O=C1CNCCCN2CCN(CCCNCC(=O)Nc3ccc(cc3)S(=O)(=O)c3ccc(cc3)NC(=O)CNCCCN3CCN(CCCNCC(=O)Nc4ccc(cc4)S(=O)(=O)c4ccc(cc4)N1)CC3)CC2
TGI (OVCAR-5 ovarian): > 77.2 µM
TGI (NCI-H23 lung): > 76.9 µM
TGI (T-47D breast): 97.2 µM
TGI (MOLT-4 leukemia): > 51 µM
TGI (NCI-H226 lung): > 73.6 µM
TGI (UO-31 renal): > 100 µM
TGI (A498 renal): 47.1 µM
TGI (CAKI-1 renal): 99.2 µM
TGI (MALME-3M melanoma): 24.2 µM
TGI (KM12 colon): > 100 µM

CC1CCC2(C(=O)O)CCC3(C)C(=CCC4C5(C)CC(O)C(O)C(C)(CO)C5C(O)CC43C)C2C1C (stereo not given)
TGI (OVCAR-5 ovarian): > 100 µM
TGI (NCI-H23 lung): > 100 µM
TGI (T-47D breast): > 84.7 µM
TGI (MOLT-4 leukemia): > 100 µM
TGI (NCI-H226 lung): > 100 µM
TGI (UO-31 renal): > 100 µM
TGI (A498 renal): 48 µM
TGI (CAKI-1 renal): > 100 µM
TGI (MALME-3M melanoma): > 100 µM
TGI (KM12 colon): > 100 µM
